Experiments:
[1] = tested on: thoracic aorta ring of a Wistar rat; assay: Vasodilating test on phenylephrine-preconstricted aorta ring (Magnus apparatus); assay type: cell-based; settings: aorta ring preconstricted with 1 μM phenylephrine; for vasodilator response at 10 mM: FIG. 1; for concentration from which the vasodilator response was observed: ten-fold increasing concentrations from 10^-9 M, change in tension
Procedure: The thoracic aorta of a Wistar rat was taken out, cut into 2 mm long, and made into an aorta ring. The ring was set in a Magnus apparatus (product name “micro tissue organ bath MTB-1Z”, manufactured by LABO SUPPORT CO., LTD.), and allowed to equilibrate with a constant tension. The constriction response of the aorta ring was confirmed with 50 mM KCl.
Next, the aorta ring was preliminarily constricted with 1 μM phenylephrine, and VPP and IPP prepared in Synthesis Example were added at ten-fold increasing concentrations from 10^−9 M to observe the vasodilator response through the change in tension of the aorta ring. The dose dependency of the vasodilator response was also studied.
The vasodilating test was conducted in the same way as in Example 1, except that the tripeptides VPP and IPP were replaced with amino acids, valine (Val) and proline (Pro), at the same concentration.

[2] = tested on: blood vessel from which the vascular endothelium was physically removed; assay: Confirmatory test for endothelium dependency of vasodilator response; assay type: cell-based, Wistar rat; settings: endothelium-removed vessel compared with intact vessel; FIG. 2
Procedure: In order to confirm that the vasodilator effect of VPP and IPP was associated with the vascular endothelium, a vasodilating test similar to the above was conducted with VPP, using as a control a blood vessel from which the vascular endothelium was physically removed by a routine method.

Compound | vasodilator response at 10 mM [1] | vasodilator response after removal of the endothelium [2] | concentration from which the vasodilator response was observed [1] [mM]
O=C(O)[C@@H]1CCCN1 [Pro, proline, reference compound] | no vasodilator response was observed |  | 
Val-Pro-Pro [VPP] | clear, transient vasodilator response | weakened | 1
Ile-Pro-Pro [IPP] | clear, transient vasodilator response |  | 1
CC(C)[C@H](N)C(=O)O [Val, valine, reference compound] | no vasodilator response was observed |  | 

Source: US20110263516A1, “VASODILATOR” (CALPIS CO., LTD., priority 2006, published 2011)
